Read-outs that look alike come from different tables or passages of the source. Some results are limits rather than exact numbers.

In patent publication US20230167127A1, “COMPOUNDS AND THEIR USE IN THE TREATMENT OF BACTERIAL INFECTION” (Hoffmann-La Roche Inc., priority 2020, published 2023) one finds IC50 data, which are given here for 19 compounds.

This test concerns Escherichia coli ATCC 25922. Briefly: 50% growth inhibitory concentration (IC50) determination, Iso-Sensitest broth dilution. The test is classed as cell-based. The settings on record: strain Escherichia coli ATCC 25922, 10-point broth dilution, optical density at 600 nm over 16 h, read-out: Escherichia coli growth inhibition IC50. On the procedure:
50% Growth Inhibitory Concentration (IC50) Determination
The in vitro antimicrobial activity of the compounds was determined according to the following procedure:
The assay used a 10-point Iso-Sensitest broth dilution method to measure quantitatively the in vitro
ATCC 25922, Acinetobacter baumannii ATCC 17961, Klebsiella pneumoniae ATCC 43816 and Staphylococcus aureus ATCC 29213.
Stock compounds in DMSO were serially twofold diluted (e.g. range from 50 to 0.097 μM final concentration) in 384 wells microtiter plates and inoculated with 50 μL of the bacterial suspension in Iso-
ell of 50 μL/well. Microtiter plates were incubated at 35±2° C.
Bacterial cell growth was determined with the measurement of optical density at λ=600 nm each 20 minutes over a time course of 16 h.
Growth inhibition was calculated during the logarithmic growth of the bacterial cells with
Table 1 provides the 50% growth inhibitory concentrations (IC50) in micromoles per liter of the compounds of present invention obtained against the strain Escherichia coli ATCC 25922.
For orientation: Broth dilution looks for growth in wells or tubes with falling amounts of substance.

Where [1] appears, read: Escherichia coli, ATCC25922, 16 h.

Regarding `Cc1ncc(F)c2c1CC(N(C)CCCc1cn(-c3cnc4c(n3)NC(=O)CO4)c(=O)o1)C2` (stereo not shown) [Example 303, 6-[5-[3-[(4-Fluoro-1-methyl-6,7-dihydro-5H-cyclopenta[c]pyridin-6-yl)-methylamino]propyl]-2-oxo-1,3-oxazol-3-yl]-4H-pyrazino[2,3-b][1,4]oxazin-3-one; formic acid], the IC50 under setting [1] came out at 0.163 µM.

`N#Cc1cccc2c1CC(NCC(O)CC1CN(c3cnc4c(n3)NC(=O)CO4)C(=O)O1)C2` (single isomer, unassigned; isomer b) [Example 82, 2-[[2-hydroxy-3-[2-oxo-3-(3-oxo-4H-pyrazino[2,3-b][1,4]oxazin-6-yl)-1,3-oxazolidin-5-yl]propyl]amino]-2,3-dihydro-1H-indene-4-carbonitrile, Isomer B; formic acid]: the IC50 was 0.152 µM.

For the compound `Cc1ncc(F)c2c1CC(N[C@H]1CC[C@@]3(CC1)CN(c1cnc4c(n1)NC(=O)CO4)C(=O)O3)C2` (stereo partly shown) [Example 298], the IC50 under setting [1] is 0.369 µM.

Take `COc1ncc(F)c2c1CC(CNCCC1CN(c3ccc4c(n3)NC(=O)CO4)C(=O)O1)C2` (stereo not shown) [Example 70, 6-[5-[2-[(4-fluoro-1-methoxy-6,7-dihydro-5H-cyclopenta[c]pyridin-6-yl)methylamino]ethyl]-2-oxo-oxazolidin-3-yl]-4H-pyrido[3,2-b][1,4]oxazin-3-one]: the IC50 under setting [1] is at most 0.0977 µM.

Regarding `Cc1c(OCC2CCN2)ncc2c1CC(CNCCC1CN(c3ccc4c(n3)NC(=O)CO4)C(=O)O1)C2` (stereo in doubt) [Example 219, 6-[5-[2-[[4-methyl-3-[[(2R)-azetidin-2-yl]methoxy]-6,7-dihydro-5H-cyclopenta[c]pyridin-6-yl]methylamino]ethyl]-2-oxo-1,3-oxazolidin-3-yl]-4H-pyrido[3,2-b][1,4]oxazin-3-one], the IC50 under setting [1] was 0.378 µM.

With `O=C1COc2ncc(N3CC(C4CCN(C5Cc6cccc(F)c6C5)CC4)OC3=O)nc2N1` (stereo not shown) [Example 350, 6-[5-[1-(4-fluoro-2,3-dihydro-1H-inden-2-yl)piperidin-4-yl]-2-oxo-1,3-oxazolidin-3-yl]-4H-pyrazino[2,3-b][1,4]oxazin-3-one], under setting [1], the IC50 is under 0.0977 µM.

For the compound `O=C1COc2ncc(N3CC(CCNCC4Cc5cccc(Cl)c5C4)OC3=O)nc2N1` (stereo not shown) [Example 281, 6-[5-[2-[(4-Chloro-2,3-dihydro-1H-inden-2-yl)methylamino]ethyl]-2-oxo-1,3-oxazolidin-3-yl]-4H-pyrazino[2,3-b][1,4]oxazin-3-one], under setting [1], the half-inhibitory concentration (IC50) is under 0.0977 µM.

In the case of `NC1(CCNCC2Cc3cccc(Cl)c3C2)CC(=O)N(c2ccc3c(n2)NC(=O)CO3)C1` (stereo not shown) [Example 140, 6-[4-amino-4-[2-[(4-chloro-2,3-dihydro-1H-inden-2-yl)methylamino]ethyl]-2-oxopyrrolidin-1-yl]-4H-pyrido[3,2-b][1,4]oxazin-3-one], the concentration for half-maximal inhibition (IC50) under setting [1] is 0.314 µM.

On to `CCOC(=O)c1cn(CC)c2c3c(c(F)cc2c1=O)CC(CNCCC1CN(c2ccc4c(n2)NC(=O)CO4)C(=O)O1)C3` (stereo not shown) [Example 225, ethyl 1-ethyl-6-fluoro-4-oxo-8-[[2-[2-oxo-3-(3-oxo-4H-pyrido[3,2-b][1,4]oxazin-6-yl)-1,3-oxazolidin-5-yl]ethylamino]methyl]-8,9-dihydro-7H-cyclopenta[h]quinoline-3-carboxylate], for which the IC50 under setting [1] is 0.547 µM.

Consider `N#Cc1cccc2c1CC(CNCCC1OC(=O)N(c3ccc4c(n3)NC(=O)CO4)C1CN)C2` (racemic) [Example 149, 2-[[2-[rac-4,5-trans-4-(aminomethyl)-2-oxo-3-(3-oxo-4H-pyrido[3,2-b][1,4]oxazin-6-yl)-1,3-oxazolidin-5-yl]ethylamino]methyl]-2,3-dihydro-1H-indene-4-carbonitrile; formic acid], for which the IC50 is 0.904 µM.

For the compound `O=C1COc2ncc(N3CC(CCNCC4Cc5nccc(F)c5C4)OC3=O)nc2N1` (stereo not shown) [Example 318, 6-[5-[2-[(4-fluoro-6,7-dihydro-5H-cyclopenta[b]pyridin-6-yl)methylamino]ethyl]-2-oxo-1,3-oxazolidin-3-yl]-4H-pyrazino [2,3-b][1,4]oxazin-3-one], under setting [1], the IC50 is under 0.0977 µM.

With `N#Cc1cc(OC2CCNC2)cc2c1CC(CNCCC1CN(c3ccc4c(n3)NC(=O)CO4)C(=O)O1)C2` (stereo not shown) [Example 254, 2-[[2-[2-Oxo-3-(3-oxo-4H-pyrido[3,2-b][1,4]oxazin-6-yl)-1,3-oxazolidin-5-yl]ethylamino]methyl]-6-pyrrolidin-3-yloxy-2,3-dihydro-1H-indene-4-carbonitrile; formic acid], the IC50 under setting [1] stood at 0.188 µM.

Regarding `Cc1ncc(F)c2c1CC(CNCCC1CC(=O)N(c3ccc4c(n3)NC(=O)CO4)C1)C2` (stereo not shown) [Example 417, 6-[4-[2-[(4-Fluoro-1-methyl-6,7-dihydro-5H-cyclopenta[c]pyridin-6-yl)methylamino]ethyl]-2-oxopyrrolidin-1-yl]-4H-pyrido[3,2-b][1,4]oxazin-3-one], under setting [1], the IC50 was under 0.0977 µM.

As for `Cc1nc(Cl)c2c(c1F)CC(CNCCC1CN(c3cnc4c(n3)NC(=O)CO4)C(=O)O1)C2` (stereo not shown) [Example 431, 6-[5-[2-[(1-chloro-4-fluoro-3-methyl-6,7-dihydro-5H-cyclopenta[o]pyridin-6-yl)methylamino]ethyl]-2-oxo-1,3-oxazolidin-3-yl]-4H-pyrazino[2,3-b][1,4]oxazin-3-one; formic acid], the IC50 under setting [1] was under 0.0977 µM.

As to `NC1c2cccc(Cl)c2CC1CCN1CC2(C1)CN(c1ccc3c(n1)NC(=O)CO3)C(=O)O2` (racemic) [Example 195, 6-[6-oxo-2-[2-[rac-1,2-trans-1-amino-4-chloro-2,3-dihydro-1H-inden-2-yl]ethyl]-5-oxa-2,7-diazaspiro[3.4]octan-7-yl]-4H-pyrido[3,2-b][1,4]oxazin-3-one; 2,2,2-trifluoroacetic acid], under setting [1], the IC50 is under 0.0977 µM.

For `N#Cc1c(OC2CNC2)ccc2c1CC(CNCCC1CN(c3ccc4c(n3)NC(=O)CO4)C(=O)O1)C2` (stereo not shown) [Example 132, 5-(azetidin-3-yloxy)-2-[[2-[2-oxo-3-(3-oxo-4H-pyrido[3,2-b][1,4]oxazin-6-yl)-1,3-oxazolidin-5-yl]ethylamino]methyl]-2,3-dihydro-1H-indene-4-carbonitrile; formic acid], the IC50 under setting [1] came out at 0.145 µM.

Consider `N#Cc1cccc2c1CC(NCCNC1CC(=O)N(c3ccc4c(n3)NC(=O)CO4)C1)C2` (stereo not shown) [Example 121, 2-[2-[[5-oxo-1-(3-oxo-4H-pyrido[3,2-b][1,4]oxazin-6-yl)pyrrolidin-3-yl]amino]ethylamino]-2,3-dihydro-1H-indene-4-carbonitrile], for which, under setting [1], the IC50 was determined as 0.167 µM.

Take `NC(=O)COc1cc(F)c2c(c1F)CC(CNCCC1CN(c3cnc4c(n3)NC(=O)CO4)C(=O)O1)C2` (stereo not shown) [Example 312, 2-[[4,7-difluoro-2-[[2-[2-oxo-3-(3-oxo-4H-pyrazino[2,3-b][1,4]oxazin-6-yl)-1,3-oxazolidin-5-yl]ethylamino]methyl]-2,3-dihydro-1H-inden-5-yl]oxy]acetamide]: the IC50 under setting [1] was under 0.0977 µM.

Take `NC1(COc2cc(F)c3c(c2F)CC(CNCCC2CN(c4ccc5c(n4)NC(=O)CO5)C(=O)O2)C3)CC1` (stereo not shown) [Example 409, 6-[5-[2-[[5-[(1-aminocyclopropyl)methoxy]-4,7-difluoro-2,3-dihydro-1H-inden-2-yl]methylamino]ethyl]-2-oxo-1,3-oxazolidin-3-yl]-4H-pyrido[3,2-b][1,4]oxazin-3-one; formic acid]: the IC50 under setting [1] is under 0.0977 µM.

By IC50 is commonly meant the midpoint of a concentration-inhibition curve.
